Data from patent US20210324359A1, “USE OF GRAM-NEGATIVE LYSIN-ANTIMICROBIAL PEPTIDE (AMP) POLYPEPTIDE CONSTRUCTS IN TREATING ENDOCARDITIS” (priority 2020, published 2021).
Like-named read-outs stand apart in the source and are kept apart here.

What was measured:
Assay type in all cases: cell-based, Pseudomonas aeruginosa
[1] = tested on: P. aeruginosa PA20 recovered from rabbit lung homogenates; settings: n=48
P. aeruginosa isolates = experiment: MIC against a range of isolates in CAA + […] human serum (Table 11); settings: Pseudomonas aeruginosa
[2] = tested on: carbapenem-resistant P. aeruginosa strains; experiment: Resensitization of carbapenem-resistant strains, combinations with imipenem or meropenem (Tables 18-22); settings: for MIC: Pseudomonas aeruginosa
P. aeruginosa PA20 = experiment: MIC of GN370 and meropenem against the infecting strain; settings: Pseudomonas aeruginosa
[3] = in combination with GN123, isolate PA19
[4] = in combination with GN123, isolate PA20
[5] = in combination with GN123, isolate PA21
[6] = in combination with GN123, isolate PA22
[7] = in combination with GN123, isolate PA23
[8] = in combination with GN123, isolate PA24
[9] = in combination with GN123, isolate WC-452

C[C@@H](O)[C@H]1C(=O)N2C(C(=O)O)=C(S[C@@H]3CN[C@H](C(=O)N(C)C)C3)[C@H](C)[C@H]12 [Meropenem, meropenem, reference compound]
32 µg/mL: MIC (P. aeruginosa isolates; read-out: Meropenem MIC, strain CFS 1292) | MIC (P. aeruginosa isolates; read-out: Meropenem MIC, strain CFS 1557 (PA19)) | MIC ([2]; isolate PA19) | MIC ([2]; isolate PA21) | MIC ([2]; isolate PA24)
> 32 µg/mL: MIC (P. aeruginosa isolates; read-out: Meropenem MIC, strain CFS 1559 (PA21)) | MIC (P. aeruginosa isolates; read-out: Meropenem MIC, strain CFS 1562 (PA24))
R ((R) = resistant): carbapenem susceptibility class, antibiotic Alone ([2]; isolate PA19) | carbapenem susceptibility class, antibiotic Alone ([2]; isolate PA20) | carbapenem susceptibility class, antibiotic Alone ([2]; isolate PA21) | carbapenem susceptibility class, antibiotic Alone ([2]; isolate PA22) | carbapenem susceptibility class, antibiotic Alone ([2]; isolate PA23) | carbapenem susceptibility class, antibiotic Alone ([2]; isolate PA24) | carbapenem susceptibility class, antibiotic Alone ([2]; isolate WC-452)
4 µg/mL: MIC (P. aeruginosa isolates; read-out: Meropenem MIC, strain CFS 1674 (PA46)) | MIC (P. aeruginosa isolates; read-out: Meropenem MIC, strain CFS 1675 (PA47))
8 µg/mL: MIC (P. aeruginosa isolates; read-out: Meropenem MIC, strain CFS 1541 (PA3))
16: Antibiotic MIC / Lysin MIC, Alone ([2]; vs. WC-452 (Table 22))
(S) ((S) = sensitive): carbapenem susceptibility class, Combination [2, 3] | carbapenem susceptibility class, Combination [2, 4] | carbapenem susceptibility class, Combination [2, 5] | carbapenem susceptibility class, Combination [2, 6] | carbapenem susceptibility class, Combination [2, 7] | carbapenem susceptibility class, Combination [2, 8] | carbapenem susceptibility class, Combination [2, 9] | carbapenem susceptibility class, Combination ([2]; in combination with GN351, vs. WC-452) | carbapenem susceptibility class, Combination ([2]; in combination with GN370, vs. WC-452) | carbapenem susceptibility class, Combination ([2]; in combination with GN428, vs. WC-452)
2 µg/mL: antibiotic MIC, Combination ([2]; in combination with GN121, isolate PA21) | antibiotic MIC, Combination ([2]; in combination with GN121, isolate PA23) | antibiotic MIC, Combination [2, 8]
1 µg/mL: MIC (P. aeruginosa isolates; ATCC27853, read-out: Meropenem MIC, strain CFS 1766 (ATCC 27853)) | MIC (P. aeruginosa isolates; read-out: Meropenem MIC, strain CFS 1597 (PA27)) | antibiotic MIC, Combination ([2]; in combination with GN121, isolate PA19) | antibiotic MIC, Combination ([2]; in combination with GN121, isolate PA20) | antibiotic MIC, Combination ([2]; in combination with GN121, isolate PA22) | antibiotic MIC, Combination ([2]; in combination with GN121, isolate PA24) | antibiotic MIC, Combination ([2]; in combination with GN121, isolate WC-452) | antibiotic MIC, Combination [2, 5] | antibiotic MIC, Combination [2, 6] | antibiotic MIC, Combination [2, 9]
48: number of isolates with Meropenem MIC […] μg/mL ([1]; isolates from GN370 (3 mg/kg) + Meropenem (20 mg/kg) group) | number of isolates with Meropenem MIC […] μg/mL ([1]; isolates from GN370 (3 mg/kg) group) | number of isolates with Meropenem MIC […] μg/mL ([1]; isolates from GN370 (10 mg/kg) + Meropenem (20 mg/kg) group) | number of isolates with Meropenem MIC […] μg/mL ([1]; isolates from GN370 (10 mg/kg) group) | number of isolates with Meropenem MIC […] μg/mL ([1]; isolates from GN370 (30 mg/kg) + Meropenem (20 mg/kg) group) | number of isolates with Meropenem MIC […] μg/mL ([1]; isolates from GN370 (30 mg/kg) group) | number of isolates with Meropenem MIC […] μg/mL ([1]; isolates from Meropenem (20 mg/kg) group) | number of isolates with Meropenem MIC […] μg/mL ([1]; isolates from Pre-treatment control group) | number of isolates with Meropenem MIC […] μg/mL ([1]; isolates from Vehicle control group)
16 µg/mL: MIC (P. aeruginosa isolates; PA1, read-out: Meropenem MIC, strain CFS1539 (PA1)) | MIC (P. aeruginosa isolates; read-out: Meropenem MIC, strain CFS 1540 (PA2)) | MIC (P. aeruginosa isolates; read-out: Meropenem MIC, strain CFS 1558 (PA20)) | MIC (P. aeruginosa isolates; read-out: Meropenem MIC, strain CFS 1560 (PA22)) | MIC (P. aeruginosa isolates; read-out: Meropenem MIC, strain CFS 1561 (PA23)) | MIC ([2]; isolate PA20) | MIC ([2]; isolate PA22) | MIC ([2]; isolate PA23) | MIC ([2]; isolate WC-452) | MIC (P. aeruginosa PA20; GN370, read-out: MIC against P. aeruginosa) | MIC (P. aeruginosa PA20; PA20, read-out: MIC of P. aeruginosa PA20)
< 0.25 µg/mL: MIC (P. aeruginosa isolates; read-out: Meropenem MIC, strain CFS 1669 (PA41))
0.5 µg/mL: MIC (P. aeruginosa isolates; ATCC17646, read-out: Meropenem MIC, strain CFS 1109 (ATCC 17646)) | MIC (P. aeruginosa isolates; read-out: Meropenem MIC, strain CFS 1596 (PA26)) | antibiotic MIC, Combination [2, 3] | antibiotic MIC, Combination [2, 4] | antibiotic MIC, Combination [2, 7]
